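Growth conditions: 96-well plates. Treatment: test compound, 48 hours, 5 concentrations. Analysis: linear interpolation between bracketing concentrations; unreached endpoints set to highest concentration. At the GI50, growth is halved. TGI: total growth inhibition.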
Legend:
Assay in all cases: growth of human tumour cells (NCI), 48 h
A549 NSCLC = system: A549 NSCLC
CAKI-1 renal = system: CAKI-1 renal
HCT-116 colon = system: HCT-116 colon
IGROV1 ovarian = system: IGROV1 ovarian
K-562 leukemia = system: K-562 leukemia
MALME-3M melanoma = system: MALME-3M melanoma
RPMI-8226 leukemia = system: RPMI-8226 leukemia
SK-MEL-5 melanoma = system: SK-MEL-5 melanoma
SNB-19 CNS = system: SNB-19 CNS
T-47D breast = system: T-47D breast

SMILES	GI50 (A549 NSCLC)	TGI (A549 NSCLC)	GI50 (CAKI-1 renal)	TGI (CAKI-1 renal)	GI50 (HCT-116 colon)	TGI (HCT-116 colon)	GI50 (IGROV1 ovarian)	TGI (IGROV1 ovarian)	GI50 (K-562 leukemia)	TGI (K-562 leukemia)	GI50 (MALME-3M melanoma)	TGI (MALME-3M melanoma)	GI50 (RPMI-8226 leukemia)	TGI (RPMI-8226 leukemia)	GI50 (SK-MEL-5 melanoma)	TGI (SK-MEL-5 melanoma)	GI50 (SNB-19 CNS)	TGI (SNB-19 CNS)	GI50 (T-47D breast)	TGI (T-47D breast)
CCN(CC)c1ccc(/C=N/NC(=O)Cc2ccc(Nc3ccnc(C(F)(F)F)c3)cc2)c(O)c1	1.19 µM	> 100 µM	0.413 µM	> 25 µM	0.46 µM	> 100 µM	0.472 µM	> 22 µM	490 nM	> 100 µM	1.18 µM	> 26 µM	0.521 µM	54.2 µM	490 nM	3.86 µM	0.588 µM	> 26.6 µM	0.517 µM	> 25.1 µM
O=c1cc(-c2ccccc2)oc2ccc(Cl)cc12		> 100 µM		> 90.4 µM		> 100 µM		> 100 µM		> 96.2 µM		> 82.4 µM		> 100 µM		> 100 µM		> 81.7 µM		> 100 µM
CC1(C)N=C(N)N=C(N)N1c1ccc(CCCC(=O)Nc2ccc(S(=O)(=O)F)cc2)cc1	9.82 µM	> 100 µM	35 µM	> 100 µM	3.69 µM	> 100 µM	0.57 µM	> 100 µM	2130 nM	> 100 µM	24.2 µM	> 100 µM	5.36 µM	> 100 µM	3200 nM	28.1 µM	36.5 µM	> 100 µM	15.8 µM	98.2 µM
Nc1ncn([C@H]2CC(O)[C@@H](CO)S2)c(=O)n1 (some centres undefined)	2.79 µM	> 100 µM	1.99 µM	> 100 µM	0.371 µM	> 100 µM	10.2 µM	> 100 µM	2200 nM	> 100 µM	88.6 µM	> 100 µM	6.22 µM	> 100 µM	1170 nM	> 100 µM	16.2 µM	> 100 µM	> 100 µM	> 100 µM
CC(C)(Oc1ccc(-c2cccc3ccccc23)cc1)C(=O)O		> 100 µM		> 100 µM		> 100 µM		> 100 µM		> 100 µM		> 100 µM		> 100 µM		> 100 µM		> 100 µM		> 100 µM
N[C@@H]1CCCN(c2c(Br)cnc3[nH]cc(NC(=O)C4CC4)c23)C1	1.5 µM	> 100 µM	0.518 µM	6 µM	10.6 µM	> 100 µM	0.409 µM	> 100 µM	303 nM	> 100 µM	1.27 µM	> 100 µM	0.68 µM		469 nM	2.24 µM	0.692 µM	> 100 µM	38.2 µM	> 100 µM
O=c1[nH]c2cc(Cl)ccc2nc1/C(=N\Nc1ccccc1)C(O)c1ccc2c(c1)OCO2 (centres undefined)		> 100 µM		> 100 µM		> 100 µM		> 100 µM		> 100 µM		> 100 µM		> 100 µM		> 100 µM		> 100 µM		> 100 µM
O=C(/C=C/c1ccc(O)c(O)c1)N1CCN(c2ccc(Cl)cc2)CC1	5.7 µM	60.2 µM	4.71 µM	48 µM	5.18 µM	19.8 µM	4.5 µM	80.5 µM	4770 nM	58.7 µM	11.1 µM	57.5 µM	2.87 µM	29.7 µM	2650 nM	10.2 µM	5.17 µM	98.1 µM	5.57 µM	77 µM
Cc1ccc(-c2nc(NCCOCCOCCN)nc(N3CCN(c4ccccn4)CC3)n2)cc1	17.1 µM	36.3 µM	16.5 µM	33.7 µM	10 µM	27.8 µM	19.4 µM	38 µM	9180 nM	24.6 µM	15.2 µM	33.7 µM	10.6 µM	32.8 µM	11800 nM	25.1 µM	16.9 µM	34.9 µM	13.7 µM	29.1 µM
COC1C(OC(=O)c2ccc(C)[nH]2)C(O)C(Oc2ccc3c(O)c(NC(=O)c4ccc(O)c(CC=C(C)C)c4)c(=O)oc3c2Cl)OC1(C)C (centres undefined)		91.7 µM		36.2 µM		33.1 µM		39.2 µM		> 100 µM		34 µM		30.4 µM		35.6 µM		30 µM		36.5 µM
CC(=O)ON(OCc1ccc2ccccc2c1)C(C)=O	> 100 µM	> 100 µM	> 100 µM	> 100 µM	> 100 µM	> 100 µM	> 100 µM	> 100 µM	> 100000 nM	> 100 µM	> 100 µM	> 100 µM	> 100 µM	> 100 µM	94700 nM	> 100 µM	> 100 µM	> 100 µM	> 100 µM	> 100 µM
O=S(=O)(c1ccccc1)N1CCCC(c2ccccc2)CC1 (centres undefined)		> 100 µM		> 100 µM		> 100 µM		> 100 µM		> 100 µM		> 100 µM		49.8 µM		28.9 µM		> 100 µM		> 100 µM
Cc1nc2c(C)ccc([N+](=O)[O-])c2c(NCCCN(C)C)c1C		> 100 µM		> 100 µM		> 100 µM		> 100 µM		> 100 µM		> 55.3 µM		> 100 µM		27.2 µM		> 100 µM		> 100 µM
CNC(=O)CCN1CCN(CC/C=C2\c3ccccc3Sc3ccc(Cl)cc32)CC1	10.7 µM	28.5 µM	3.42 µM	19.7 µM	5.76 µM	20.9 µM	15.1 µM	37.3 µM	4200 nM	> 37.1 µM	2.59 µM	6.16 µM	3.65 µM	18.2 µM	2410 nM	6.18 µM	16 µM	30.7 µM	9.21 µM	26.5 µM

From PubChem BioAssay (NCI)
